Measured values from PubChem BioAssay AID624281 (Broad Institute, 2012).
The source made the active and inactive calls. No rule for the calls is given here.

Tested on: V. cholerae DH231 (ΔcqsS ΔluxS) lux bioluminescence, 6 h
Experiment: Light production inducers in absence of autoinducers, V. cholerae DH231, dose response (AID 624281)
Details: not given

Structure (SMILES) | AC40
Cc1ccc2cc3c(NC(=O)c4ccco4)nn(C)c3nc2c1 | 2030 nM
O=C(Nc1nnc(-c2ccc3c(c2)OCCO3)o1)C1CCCCC1 | 883 nM
COc1ccccc1NC(=O)COC(=O)c1cc2c(s1)CCC2 | > 35000 nM (inactive)

Tested on: not listed separately
Experiment: as above
Details: V. cholerae DH231 (ΔcqsS ΔluxS) lux bioluminescence, 6 h; at 35 µM (top of the series)

Structure (SMILES) | luminescence activation
CCn1nnc(NCc2ccc(C)cc2)n1 | 4.08% (inactive)
COc1ccccc1NC(=O)COC(=O)c1ccc(C)cc1 | 8.61% (inactive)
CCCn1nnnc1NCc1ccc(N2CCCC2)cc1 | -14% (inactive)
Cc1ccc(CC(=O)NC2CCCC2)cc1 | 0.807% (inactive)
CCC(C)NC(=O)Cc1ccc(-c2ccccc2)cc1 (stereo not given) | -15.3% (inactive)
CCCn1nnnc1NCc1ccc(C(C)C)cc1 | -30.3% (inactive)
CCn1nnnc1NCc1ccc(N2CCCC2)cc1 | -52.4% (inactive)
O=C(Cc1ccc(-c2ccccc2)cc1)NC1CCCC1 | -8.42% (inactive)
COc1ccc(Cl)cc1NC(=O)COC(=O)c1ccc(C)o1 | -3.04% (inactive)
CCCn1nnnc1NCc1ccccc1Cl | -4.59% (inactive)
CCCn1nnnc1NCc1ccc(N(CC)CC)cc1 | -19.9% (inactive)
CCOc1ccc(Nc2ccc3nonc3c2[N+](=O)[O-])cc1 | -40.9% (inactive)
O=c1ncn(-c2cccc(Cl)c2)c2ccccc12 | 14.1% (inactive)
COc1ccccc1NC(=O)COC(=O)c1oc2ccccc2c1C | -6.24% (inactive)
CCn1c(CC(=O)Nc2cccc(Cl)c2Cl)nnc1SCCOc1ccc(OC)cc1 | -63.2% (inactive)
Cc1ccc(OCCNC(=O)c2cccc(C)c2)cc1 | -33.1% (inactive)
Cc1c(Cl)cccc1-n1cnc(=O)c2ccccc21 | -4.11% (inactive)
